Reference: patent publication US6441195B1, “Substituted sulphonylamino(thio) carbonyl compounds” (Bayer Aktiengesellschaft, priority 1995, dated 2002)

Assays:
Format in all cases: in vivo
weeds = experiment: Pre-emergence test (greenhouse), activity against weeds; details: in words
Method: Solvent: 5 parts by weight of acetone
Emulsifier: 1 part by weight of alkylaryl polyglycol ether
(§1) To produce a suitable preparation of the active compound, 1 part by weight of active compound is mixed with the stated amount of solvent, the stated amount of emulsifier is added and the concentrate is diluted with water to the desired concentration.
(§2) Seeds of the test plants are sown in normal soil. After about 24 hours, the soil is watered with the preparation of active compound. Advantageously, the amount of water per unit area is kept constant. The active compound concentration in the preparation is not important, only the active compound appliation rate per unit area matters.
(§3) After three weeks, the degree of damage to the plants is rated in % damage in comparison to the development of the untreated control.
(§4) 0%=no action (like untreated control)

Maize = experiment: Pre-emergence test/Greenhouse, Maize
Method: as §1, §2, §3, §4

Soya beans = experiment: Pre-emergence test/Greenhouse, Soya beans
Method: as §1, §2, §3, §4

Lolium = experiment: Pre-emergence test/Greenhouse, Lolium; details: after three weeks
Method: as §1, §2, §3, §4

Poa = experiment: Pre-emergence test/Greenhouse, Poa; details: after three weeks
Method: as §1, §2, §3, §4

Ambrosia = experiment: Pre-emergence test/Greenhouse, Ambrosia; details: after three weeks
Method: as §1, §2, §3, §4

Matricaria = experiment: Pre-emergence test/Greenhouse, Matricaria; details: after three weeks
Method: as §1, §2, §3, §4

Solanum = experiment: Pre-emergence test/Greenhouse, Solanum; details: after three weeks
Method: as §1, §2, §3, §4

Sorghum = experiment: Pre-emergence test/Greenhouse, Sorghum; details: after three weeks
Method: as §1, §2, §3, §4

[1] = pre-emergence, 60 g of ai./ha, after three weeks

Row | SMILES | activity against weeds (weeds) | degree of damage to the plants (% damage vs untreated control), Lolium (Lolium; 60 g of ai./ha) [%] | degree of damage to the plants (% damage vs untreated control), Poa (Poa; 60 g of ai./ha) [%] | degree of damage to the plants (% damage vs untreated control), Ambrosia (Ambrosia; 60 g of ai./ha) [%] | degree of damage to the plants (% damage vs untreated control), Matricaria (Matricaria; 60 g of ai./ha) [%] | degree of damage to the plants (% damage vs untreated control), Solanum (Solanum; 60 g of ai./ha) [%] | degree of damage to the plants (% damage vs untreated control), Maize (Maize; in vivo) [%] | degree of damage to the plants (% damage vs untreated control), Lolium (Lolium; 125 g of ai./ha) [%] | degree of damage to the plants (% damage vs untreated control), Poa (Poa; 125 g of ai./ha) [%] | degree of damage to the plants (% damage vs untreated control), Sorghum (Sorghum; 125 g of ai./ha) [%] | degree of damage to the plants (% damage vs untreated control), Ambrosia (Ambrosia; 125 g of ai./ha) [%] | degree of damage to the plants (% damage vs untreated control), Matricaria (Matricaria; 125 g of ai./ha) [%] | degree of damage to the plants (% damage vs untreated control), Solanum (Solanum; 125 g of ai./ha) [%] | other results
1 | CCOn1c(SCC)nn(C(=O)NS(=O)(=O)c2c(C)cccc2C(=O)OC)c1=O [Example 3, 4-ethoxy-5-ethylthio-2-(2-methyl-6-methoxy-carbonyl-phenylsulphonylaminocarbonyl)-2,4-dihydro-3H-1,2,4-triazol-3-one] | very strong activity against weeds | 90 | 70 | 80 | 95 | 80 | – | – | – | – | – | – | – | degree of damage to the plants (% damage vs untreated control), Maize (Maize; [1]): 10%; degree of damage to the plants (% damage vs untreated control), Soya beans (Soya beans; [1]): 20%
2 | COC(=O)c1cccc(C)c1S(=O)(=O)NC(=O)c1noc(C)n1 [Example 9] | very strong activity against weeds | – | – | – | – | – | 0 | 80 | 80 | 60 | 95 | 90 | 95 | –
3 | COC(=O)c1scc(C)c1S(=O)(=O)NC(=O)c1noc(C)n1 [Example 13] | very strong activity against weeds | – | – | – | – | – | 30 | 90 | 80 | 70 | 95 | 95 | 90 | –
4 | CCn1c(OC)nn(C(=O)NS(=O)(=O)c2c(C)cccc2C(=O)OC(C)C)c1=O [Example 19] | very strong activity against weeds | 95 | 95 | 95 | 95 | 90 | 0 | – | – | – | – | – | – | degree of damage to the plants (% damage vs untreated control), Soya beans (Soya beans; in vivo): 0%
5 | CCCc1nn(C(=O)NS(=O)(=O)c2c(C)csc2C(=O)OC)c(=O)n1C [Example 35] | very strong activity against weeds | 95 | 95 | 95 | 100 | 95 | 0 | – | – | – | – | – | – | degree of damage to the plants (% damage vs untreated control), Sorghum (Sorghum; 60 g of ai./ha): 95%
6 | CCOc1nn(C(=O)NS(=O)(=O)c2c(C)csc2C(=O)OC)c(=O)n1CC [Example 41] | very strong activity against weeds | 60 | 80 | 95 | 95 | 90 | 0 | – | – | – | – | – | – | degree of damage to the plants (% damage vs untreated control), Sorghum (Sorghum; 60 g of ai./ha): 60%
7 | CCOc1nn(C(=O)NS(=O)(=O)c2c(C)cccc2C(=O)OC(C)C)c(=O)n1C1CC1 [Example 46] | very strong activity against weeds | – | – | – | – | – | 0 | – | – | – | – | – | – | degree of damage to the plants (% damage vs untreated control), Lolium (Lolium; 8 g of ai./ha): 80%; degree of damage to the plants (% damage vs untreated control), Poa (Poa; 8 g of ai./ha): 95%; degree of damage to the plants (% damage vs untreated control), Sorghum (Sorghum; 8 g of ai./ha): 80%; degree of damage to the plants (% damage vs untreated control), Ambrosia (Ambrosia; 8 g of ai./ha): 95%; degree of damage to the plants (% damage vs untreated control), Matricaria (Matricaria; 8 g of ai./ha): 95%; degree of damage to the plants (% damage vs untreated control), Solanum (Solanum; 8 g of ai./ha): 95%
8 | CCOC(=O)c1scc(C)c1S(=O)(=O)NC(=O)n1nc(SC)n(C)c1=O [Example 55] | very strong activity against weeds | – | – | – | – | – | 10 | 100 | 90 | 60 | 100 | 100 | 100 | –
9 | CCOC(=O)c1scc(C)c1S(=O)(=O)NC(=O)n1nc(SCC)n(C)c1=O [Example 56] | very strong activity against weeds | – | – | – | – | – | – | 60 | 80 | – | – | 100 | 95 | degree of damage to the plants (% damage vs untreated control), Soya beans (Soya beans; in vivo): 0%
10 | CCOC(=O)c1scc(C)c1S(=O)(=O)NC(=O)n1nc(CC)n(OCC)c1=O [Example 61] | very strong activity against weeds | – | – | – | – | – | 0 | 95 | 95 | 80 | 100 | 95 | 95 | –
11 | C=CCn1c(SCCF)nn(C(=O)NS(=O)(=O)c2c(C)cccc2C(=O)OC)c1=O [Example 153] | very strong activity against weeds | – | – | – | – | – | 0 | – | 95 | – | 95 | 70 | 95 | degree of damage to the plants (% damage vs untreated control), Soya beans (Soya beans; in vivo): 30%
